In patent US9757375B2, “Compounds that inhibit human DNA ligases and methods of treating cancer” (University of Maryland, Baltimore, priority 2007, dated 2017):
Where two headings read alike, the source gives them in different places.

Columns and labels:
[1] = biological target: T1, T4 DNA ligase (Enterobacteria phage T4, UniProt P00970); experiment: High-throughput fluorescence-based DNA joining assay, non-specific inhibitor control; type: biochemical, bacteriophage T4; conditions: for inhibition of T4 DNA ligase, in words: in vitro screen, 100 μmol/L
T1 construct: purchased NEB
T1 sequence (P00970 1-487): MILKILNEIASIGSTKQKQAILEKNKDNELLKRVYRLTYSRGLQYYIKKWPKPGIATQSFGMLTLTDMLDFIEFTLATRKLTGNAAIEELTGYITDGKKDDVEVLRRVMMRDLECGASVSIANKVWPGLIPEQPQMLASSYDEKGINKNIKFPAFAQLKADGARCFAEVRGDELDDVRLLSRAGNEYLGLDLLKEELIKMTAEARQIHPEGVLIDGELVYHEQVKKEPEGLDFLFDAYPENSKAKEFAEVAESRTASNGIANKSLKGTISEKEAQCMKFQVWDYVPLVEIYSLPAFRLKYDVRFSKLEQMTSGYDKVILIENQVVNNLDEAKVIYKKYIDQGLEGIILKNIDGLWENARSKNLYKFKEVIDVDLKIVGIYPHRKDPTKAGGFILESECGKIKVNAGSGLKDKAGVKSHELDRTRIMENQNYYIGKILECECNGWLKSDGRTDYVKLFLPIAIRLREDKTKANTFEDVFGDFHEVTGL
Method in brief: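 This counter-screen used a FRET-based DNA joining assay. Duplicate reactions held 10 pmol nicked DNA substrate and 10 units T4 DNA ligase, with or without 100 μmol/L compound. T4 ligase lacks the DNA-binding domain targeted in silico, so compounds inhibiting it were flagged as non-specific, likely DNA-binding.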

[2] = test system: MCF7, HCT116, HeLa, and MCF10A cells; experiment: Survival assay on cell panel (FIG. 9); type: cell-based, human; conditions: for cell survival: remark in words / EC50: cell line not stated; for potentiation of the cytotoxic effects of DNA-damaging agents: L67 3 μmol/L with MMS (MCF7 vs MCF10A), L189 20 μmol/L with ionizing radiation (HCT116 vs MCF10A), FIG. 9B; for cytotoxicity (cell survival): MCF7, HCT116, HeLa, MCF10A, FIG. 9A
Text: FIG. 9. […] A, effect of L67 (left) and L189 (right) on the survival of MCF7 (Δ), HCT116 (□), HeLa (⋄), and MCF10A (upsidedown triangle) cells. B, normal breast epithelial MCF10A cells (open symbols) and breast cancer MCF7 cells (filled symbols) in the absence (circles) or presence of 3 μmol/L of L67 (squares) were exposed to increasing concentrations of MMS (left). Normal breast epithelial MCF10A cells (open symbols) and colon cancer HCT116 cells (filled symbols) in the absence (circles) or presence of 20 μmol/L of L189 (squares) were exposed to increasing doses of ionizing radiation (right). C, hLigI (I), hLigIIIα (III), and hLigIV (IV) were detected in extracts (400 μg) of the indicated cell lines by immunoblotting. To control for extract loading β-actin was also detected by immunoblotting.
For survival assays, cells were plated in 6 well plates and grown either in the absence or presence of ligase inhibitors. Where indicated, either MMS (0-50 μM) was added to the medium or the cells were irradiated in a Cs-137 irradiator (0-2.5 Gy). After two weeks, colonies were stained with crystal violet (Sigma) and then counted.

[3] = test system: HCT116 cells; experiment: Cell proliferation screen (SYBR Green, Biomek FX); type: cell-based, human; conditions: for Growth_Inh % (50 μM) HCT116: percentage of values obtained with DMSO alone; for inhibition at 50 µM: Homo sapiens, HCT-116, read-out: % growth inhibition HCT116 50 uM
Method: (§1) The ability of the compounds identified by CADD to inhibit proliferation of normal mammary epithelial MCF10A cells and colon carcinoma HCT116 cells was determined using a Biomek FX Laboratory Automation Workstation (Beckman Coulter, Inc., Fullerton, Calif.). On day 0, 20 μl of complete medium containing the appropriate number of cells (150-300) was plated per well of a 384-well tissue plate (Fisher Scientific, Hampton, N.H.) and incubated overnight at 37° C. with 5% CO2 and 90% humidity. Next day, day 1, compounds were prepared by serial dilution with complete medium to yield the concentration 100 μM, and 20 μl was added to each well containing 20 μl of medium and cells yielding the final concentration 50 μM in 40 μl volume. Plates were incubated for additional 3 days (days-2-5) until control cells (0.5% DMSO) reached ˜70-80% confluency. On day 6, 40 μl of lysis/detection solution containing 1.2% Igepal CA-630 (Sigma) and a 1:1000 dilution of SYBR Green I nucleic acid stain (Molecular Probes, Eugene, Oreg.) was added to each well. Following an overnight incubation at 37° C., total fluorescence was measured using a Fluorostar Galaxy plate reader with a 485 nm excitation filter and 520 nm emission filter set (BMG Labtech, Inc., Durham, N.C.). Data was exported to a custom program that determined growth inhibition by dividing each individual fluorescence value by the average of fluorescence values obtained with cells treated with DMSO alone.
(§2) The 192 human DNA ligase inhibitors were screened in parallel for effects on proliferation and the ability to potentiate the effects of several DNA damaging agents using two cell human lines, a colon cancer line HCT116 and a normal breast epithelial cell line MCF10A using a Biomek FX Laboratory Automation Workstation as described (23). The DNA damaging agents used, methyl methanesulfonate (MMS), camptothecin, cis-platinum, 3 aminobenzamide and ionizing radiation, are representatives of classes of agents used to treat cancer. Briefly, HCT116 and MCF10A cells were plated in 96 well plates such that the cultures were about 80% confluent after 5 days incubation. Compounds were added to the cultures at either 15 μM or 50 μM 1 day after plating. After incubation for 3 days, cell lysed in a solution containing 1.2% Igepal CA-630 and SYBR green that stains DNA (1:1000, Molecular Probes, Eugene, Oreg.). Subsequently, fluorescence was measured per well. The studies with DNA damaging agents were performed as follows. […] For ionizing radiation, cells were pre-incubated with the compounds at 50 μM for 1 hour prior to exposure to 2 gray of ionizing radiation. Cultures were incubated for 3 days and then treated as above.

[4] = test system: MCF10A cells; experiment: Cell proliferation screen (SYBR Green, Biomek FX); type: cell-based, human; conditions: for Growth_Inh % (50 μM) MCF10A: percentage of values obtained with DMSO alone; for inhibition at 50 µM: Homo sapiens, MCF-10A
Method: as §1, §2

[5] = test system: HCT116 and MCF10A cells; experiment: Cell proliferation screen, result stated for one or both cell lines; type: cell-based, human; conditions: in vivo cell culture screen
Method: as §1, §2

[6] = 100 μM, read-out: In vitro % inhib T4 100
[7] = read-out: % activity Inhibition LigT4 100 uM
[8] = 50 μM, read-out: In vivo growth inhb MCF10A % Inhb at 50
[9] = read-out: % growth inhibition MCF10A 50 uM

For Cc1oc(C(=O)O)cc1CSCc1cc(C(=O)O)c(C)o1 [Compound 197], the inhibition at 100 µM [1, 6] was 24 ± 6%, the inhibition at 100 µM [1, 7] was 24.4 ± 5.8% and the “cell survival: remark in words” value [2] was “no activity”.

For COc1ccc(-c2cnc3c(O)nc(O)nc3n2)cc1 [Compound 190], the inhibition at 100 µM [1, 6] was 5 ± 1%, the inhibition at 100 µM [1, 7] was 5.4 ± 0.74% and the “In vitro growth inhb HCT116 % Inhb at 50 (μM)” value [3] was 40%. For the same molecule, the “Growth_Inh % (50 μM) HCT116” value [3] was 40%, the inhibition at 50 µM [3] was 40% and the “Growth_Inh % (50 μM) MCF10A” value ([4]; 50 μM) was 70%. For the same molecule, the inhibition at 50 µM [4, 8] was 40%, the inhibition at 50 µM [4, 9] was 40% and the “inhibition of cell proliferation, in words” value [5] was “inhibited cell proliferation”.

For CCCCC(=O)c1ccc(O)cc1O [Compound 213], the inhibition at 100 µM [1, 6] was 0%, the “In vitro growth inhb HCT116 % Inhb at 50 (μM)” value [3] was 70% and the inhibition at 50 µM [3] was 70%. For the same molecule, the inhibition at 50 µM [4, 8] was 70%, the inhibition at 50 µM [4, 9] was 70% and the “inhibition of cell proliferation, in words” value [5] was “inhibited cell proliferation”.

For Nc1nc(S)nc(O)c1/N=C/c1ccccc1 [Compound 189], the inhibition at 100 µM [1, 6] was 3 ± 2%, the “inhibition of T4 DNA ligase, in words” value [1] was “inhibit hLigI but not T4 DNA ligase” and the inhibition at 100 µM [1, 7] was 3.2 ± 1.9%. For the same molecule, the “In vitro growth inhb HCT116 % Inhb at 50 (μM)” value [3] was 70%, the “Growth_Inh % (50 μM) HCT116” value [3] was 70% and the inhibition at 50 µM [3] was 70%. For the same molecule, the “Growth_Inh % (50 μM) MCF10A” value ([4]; 50 μM) was 70%, the inhibition at 50 µM [4, 8] was 70% and the inhibition at 50 µM [4, 9] was 70%. The “inhibition of cell proliferation, in words” value [5] was “inhibited cell proliferation”, the EC50 ([2]; Homo sapiens) was ~50 µM and the “potentiation of the cytotoxic effects of DNA-damaging agents” value [2] was “potentiate the cytotoxic effects of DNA-damaging agents”. For the same molecule, the “cytotoxicity (cell survival)” value [2] was “cytotoxic”.

CS(=O)(=O)NNC(=O)C(=O)NNc1ccccc1 [Compound 184] was tested, and the “% activity Inhibition LigT4 100 uM” value ([1]; 100 uM) was 0.42 ± 1.4%, the “In vitro % inhib T4 100 (μM)” value ([1]; 100 μM) was 1 ± 1% and the “% growth inhibition HCT116 50 uM” value ([3]; 50 uM) was 40%. For the same molecule, the “In vitro growth inhb HCT116 % Inhb at 50 (μM)” value [3] was 40%, the “% growth inhibition MCF10A 50 uM” value ([4]; 50 uM) was 70% and the “% growth inhibition of MCF10A cells in culture at 50 uM” value ([4]; 50 μM) was 70%. For the same molecule, the “inhibition of cell proliferation, in words” value [5] was “inhibited cell proliferation” and the EC50 [2] was ~10 µM.

Cc1c(Br)cc(NCC(=O)N/N=C\c2cc([N+](=O)[O-])ccc2O)cc1Br [Compound 67] was tested, and the inhibition at 100 µM [1, 6] was 0%, the “inhibition of T4 DNA ligase, in words” value [1] was “inhibit hLigI but not T4 DNA ligase” and the inhibition at 100 µM [1, 7] was 0%. The “In vitro growth inhb HCT116 % Inhb at 50 (μM)” value [3] was 70%, the “Growth_Inh % (50 μM) HCT116” value [3] was 70% and the inhibition at 50 µM [3] was 70%. The “Growth_Inh % (50 μM) MCF10A” value ([4]; 50 μM) was 70%, the inhibition at 50 µM [4, 8] was 70% and the inhibition at 50 µM [4, 9] was 70%. For the same molecule, the “inhibition of cell proliferation, in words” value [5] was “inhibited cell proliferation”, the EC50 ([2]; Homo sapiens) was ~10 µM and the “potentiation of the cytotoxic effects of DNA-damaging agents” value [2] was “potentiate the cytotoxic effects of DNA-damaging agents”. The “cytotoxicity (cell survival)” value [2] was “cytotoxic”.

O=c1[nH]ncc(N/N=C\c2ccc(O)c([N+](=O)[O-])c2)c1Cl [Compound 82] was tested, and the inhibition at 100 µM [1, 6] was 14 ± 11%, the “inhibition of T4 DNA ligase, in words” value [1] was “inhibit hLigI but not T4 DNA ligase” and the inhibition at 100 µM [1, 7] was 13.9 ± 11.4%. The “In vitro growth inhb HCT116 % Inhb at 50 (μM)” value [3] was 40%, the “Growth_Inh % (50 μM) HCT116” value [3] was 40% and the inhibition at 50 µM [3] was 40%. The “Growth_Inh % (50 μM) MCF10A” value ([4]; 50 μM) was 70%, the inhibition at 50 µM [4, 8] was 70% and the inhibition at 50 µM [4, 9] was 70%. For the same molecule, the “inhibition of cell proliferation, in words” value [5] was “inhibited cell proliferation”, the EC50 ([2]; Homo sapiens) was ~50 µM and the “cell survival: remark in words” value [2] was “cytostatic, G1”.

Molecule O=C(c1ccc(O)cc1)c1ccccc1O [Compound 200] has an inhibition at 100 µM [1, 6] of 0%, an inhibition at 100 µM [1, 7] of 0% and an inhibition at 50 µM [3] of 70%. The inhibition at 50 µM [4, 9] was 70% and the “cell survival: remark in words” value [2] was “metabolite active”.

In the case of O=C1Nc2ccccc2Oc2cc([N+](=O)[O-])cc([N+](=O)[O-])c21 [Compound 180], the “Growth_Inh % (50 μM) HCT116” value [3] is reported as 70% and the “Growth_Inh % (50 μM) MCF10A” value ([4]; 50 μM) is reported as 70%.

For O=C(Cn1cnc([N+](=O)[O-])n1)N/N=C/c1ccc(O)cc1O [Compound 151], the inhibition at 100 µM [1, 6] was 0%, the “In vitro growth inhb HCT116 % Inhb at 50 (μM)” value [3] was 70% and the inhibition at 50 µM [3] was 70%. The inhibition at 50 µM [4, 8] was 70%, the inhibition at 50 µM [4, 9] was 70% and the “inhibition of cell proliferation, in words” value [5] was “inhibited cell proliferation”. The EC50 ([2]; Homo sapiens) was ~10 µM.

In the case of C/C(O)=C1/C(=O)N(c2nc3ccccc3s2)N=C1c1ccccc1 [Compound 43], the inhibition at 100 µM [1, 6] is reported as 0%, the inhibition at 100 µM [1, 7] is reported as 0% and the “In vitro growth inhb HCT116 % Inhb at 50 (μM)” value [3] is reported as 70%. For the same molecule, the inhibition at 50 µM [3] was 70%, the inhibition at 50 µM [4, 8] was 70% and the inhibition at 50 µM [4, 9] was 70%. For the same molecule, the “inhibition of cell proliferation, in words” value [5] was “inhibited cell proliferation”.

For O=C(O)CSc1cc(Cl)c2nonc2c1[N+](=O)[O-] [Compound 64], the inhibition at 100 µM [1, 6] was 18 ± 8%, the inhibition at 100 µM [1, 7] was 18.4 ± 8.4% and the inhibition at 50 µM [3] was 70%. For the same molecule, the “Growth_Inh % (50 μM) MCF10A” value ([4]; 50 μM) was 40%, the inhibition at 50 µM [4, 8] was 40% and the inhibition at 50 µM [4, 9] was 40%. For the same molecule, the “inhibition of cell proliferation, in words” value [5] was “inhibited cell proliferation” and the EC50 ([2]; Homo sapiens) was ~50 µM.
